Experimental data from patent US11667651B2, “Aminopyridine derivatives as phosphatidylinositol phosphate kinase inhibitors” (HiberCell, Inc., priority 2017, dated 2023).

Experiments:
[1] = target: T1, PIP4K2A (Homo sapiens, UniProt P48426); experiment: Kinase Assay PIP4K2 A (Table 2); format: biochemical; set-up: 4 nM PIP4K2A (full length protein, SignalChem); purchased SignalChem; conditions: compounds listed under IC50 bins
T1 sequence (P48426 1-406): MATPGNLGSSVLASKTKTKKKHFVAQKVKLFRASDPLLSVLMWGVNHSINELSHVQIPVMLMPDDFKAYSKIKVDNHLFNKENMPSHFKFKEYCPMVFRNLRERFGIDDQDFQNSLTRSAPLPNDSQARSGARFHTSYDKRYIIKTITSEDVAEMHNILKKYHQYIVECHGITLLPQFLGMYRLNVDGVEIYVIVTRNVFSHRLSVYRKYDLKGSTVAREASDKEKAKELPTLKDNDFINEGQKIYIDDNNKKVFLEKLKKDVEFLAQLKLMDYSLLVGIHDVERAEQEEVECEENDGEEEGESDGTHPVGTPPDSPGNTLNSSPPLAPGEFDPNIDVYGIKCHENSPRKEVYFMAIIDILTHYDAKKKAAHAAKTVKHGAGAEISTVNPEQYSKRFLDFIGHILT
Method: Dilution series of the compounds were prepared in DMSO at 100 times the final assay concentration (n1=n0/3 in 10 points). The compounds were further diluted to three times the assay concentration in assay buffer (20 mM MOPS pH 7.2, 25 mM magnesium chloride, 0.005% Tween 20). 6 μL of the diluted compounds were added to a 384 well assay plate followed by 9 μL of a mix consisting of 4 nM PIP4K2A (full length protein, SignalChem) and 100 μM PI(5)P diC8 (Tebu-Bio). Enzyme and compounds were pre-incubated at room temperature for 15 minutes.
Then 3 μL of a solution containing 60 μM ATP (Promega) in assay buffer was added to the wells containing compound and enzyme and mixing was performed by pipetting several times. The reaction was incubated at room temperature for 1 h. Then 18 μL of ADP-Glo™ Reagent (Promega) was added to stop the kinase reaction and deplete the unconsumed ATP, mixing was performed by pipetting several times. The plate was incubated at room temperature for 40 minutes before addition of 36 μL of Kinase Detection Reagent (Promega) to convert ADP to ATP and introduce luciferase and luciferin to detect ATP. The reaction was incubated at room temperature for 40 minutes before the luminescence was measured in a in a Victor 3V 1420 multilabel counter (Perkin Elmer).
Percent inhibition of the compounds as compared to dimethyl sulfoxide treated control samples was calculated. Compound concentration versus percent inhibition were fitted to generate IC50 values.

[2] = target: T2, PIP4K2B (Homo sapiens, UniProt P78356); experiment: Trans-FI P kinase assay PIP4K2B (Table 4); format: biochemical; conditions: compounds listed under IC50 bins; read-out: Trans-FI P kinase assays: PIP4K2B IC50
T2 construct: made in house; host or cells: E. coli
T2 sequence (P78356 1-416): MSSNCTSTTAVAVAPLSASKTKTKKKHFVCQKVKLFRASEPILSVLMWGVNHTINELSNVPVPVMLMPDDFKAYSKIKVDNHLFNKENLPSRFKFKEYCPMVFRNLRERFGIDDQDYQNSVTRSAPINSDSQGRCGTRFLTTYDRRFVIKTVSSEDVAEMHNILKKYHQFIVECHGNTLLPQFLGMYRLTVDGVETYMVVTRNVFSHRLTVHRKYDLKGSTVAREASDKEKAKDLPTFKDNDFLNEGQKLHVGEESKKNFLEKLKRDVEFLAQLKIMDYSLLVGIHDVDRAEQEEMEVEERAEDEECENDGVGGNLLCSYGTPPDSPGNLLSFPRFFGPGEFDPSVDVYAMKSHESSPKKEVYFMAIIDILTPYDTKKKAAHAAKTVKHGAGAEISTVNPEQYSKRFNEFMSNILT
Text: GST tagged PIP4KtypeIIA and B enzymes were overexpressed in E. Coli and purified to >80% homogeneity. Phosphatidyl inositol-5-phosphate (PI5P, Cat. #850152, Avanti Polar Lipids Inc.) was used as the lipid substrate and phosphatidyl ethanolamine (DOPE 18:1, Cat. #850725, Avanti Polar Lipids Inc.) was used as the carrier lipid for assays. Ultrapure ATP and GTP was purchased from Bellbrooke Labs. ADP Glo reagents were obtained from Promega. Transcreener FI reagent was obtained from Bellbrooke labs.
GST-tagged PIP4KtypeIIB (3.4 μL, 2.77 mg/mL) was diluted to 5 mL using HNE buffer to yield 5× enzyme stock (25 nM)
Lipid Preparation: In a 10 mL pyrex glass vial, […] were suspended in 2.5 mL of HEPES buffer mix and 2.5 mL of H:E buffer. The contents were mixed and sonicated for 3 min to yield a translucent lipid stock.
Compound Preparation: Compounds were stored as 5 mM stocks in neat DMSO as room temperature in glass vials. 5 mM stocks were diluted to 2 mM and then serially diluted (3×) in neat DMSO in 96 well polypropylene plates. From the serially diluted stocks, 3 μL was delivered into 250 μL of 25% DMSO (in water) to generate 5× compound stocks. Typically, the highest compound conc. was 24 μM.
The assay volume was kept at 25 μL. To each well of the reaction plate, 10 μL of lipid stock (1:1 ratio PI5P:DOPE) was delivered. This was followed by the addition of 5 μL of compound in 25% DMSO. Then, to each well, 5 μL of 25 nM (5×) typeIIB enzyme was delivered. The contents were mixed well and incubated for 1 h at 27° C. After 1 h, reaction was initiated by adding 5 μL of 500 μM GTP and the contents were mixed well with a multi-channel pipetteman. The final concentration of the reagents are as follows: 50 mM HEPES, pH 7.3, 10 mM MgCl2, 20 mM NaCl, 0.01% v/v triton-X100, 5% DMSO, 100 μM GTP, 80 μM (2 μg) PI5P, 2 μg DOPE, and 5 nM PIP4KIIB Typically, the highest conc. of compounds was 4.8 μM and the lowest conc. was 0.
After 2 h, the reaction was quenched by adding 25 μL of transcreener FI reagent. The contents were incubated at rt for 1 h and the Fluorescence (Ex: 584 Em: 623) was read using Molecular Devices Paradigm plate reader. […] The blanks were averaged and subtracted from all other wells. Using a calibration curve, RFU was converted to μM GDP (product). IC50 was calculated by plotting the residual activity (expressed as % No inhibitor control) vs. log [Inh. conc.]

IC50 [1] [µM] | IC50 [2] [µM] | Structure (SMILES)
0.001 to 0.01 | 0.01 to 0.1 | COC(=O)N1CCOc2ncc(Nc3ccc(-c4ccc(C(=O)N(C)C)cc4)cn3)cc21 [Example 93, methyl 7-((5-(4-(dimethylcarbamoyl)phenyl)pyridin-2-yl)amino)-2,3-dihydro-1H-pyrido[2,3-b][1,4]oxazine-1-carboxylate]
0.01 to 0.1 | 0.01 to 0.1 | COCc1nc(Nc2cnc3c(c2)N2C(=O)CC[C@H]2CO3)ncc1-c1ccc(C(=O)N(C)C)cc1 [Example 293, (S)-4-(4-(methoxymethyl)-2-((9-oxo-6a,7,8,9-tetrahydro-6H-pyrido[2,3-b]pyrrolo[1,2-d][1,4]oxazin-2-yl)amino)pyrimidin-5-yl)-N,N-dimethylbenzamide]
0.1 to 1 | 0.01 to 0.1 | Cn1cnnc1N1CCN(c2ccc(Nc3cnc4c(c3)N3C(=O)CC[C@H]3CO4)nc2)CC1 [Example 275, (S)-2-((5-(4-(4-methyl-4H-1,2,4-triazol-3-yl)piperazin-1-yl)pyridin-2-yl)amino)-6,6a,7,8-tetrahydro-9H-pyrido[2,3-b]pyrrolo[1,2-d][1,4]oxazin-9-one]
≤ 0.001 | 0.001 to 0.01 | Cc1cnnn1-c1ccc(-c2cnc(Nc3cnc4c(c3)N3C(=O)CC[C@H]3CO4)nc2C(C)C)cc1 [Example 278, (S)-2-((4-isopropyl-5-(4-(5-methyl-1H-1,2,3-triazol-1-yl)phenyl)pyrimidin-2-yl)amino)-6,6a,7,8-tetrahydro-9H-pyrido[2,3-b]pyrrolo[1,2-d][1,4]oxazin-9-one]
0.01 to 0.1 | 0.01 to 0.1 | Cn1cnnc1-c1ccc(-c2cnc(Nc3cnc4c(c3)N3C(=O)CC[C@H]3CO4)cc2C2CC2)cc1 [Example 285, (S)-2-((4-cyclopropyl-5-(4-(4-methyl-4H-1,2,4-triazol-3-yl)phenyl)pyridin-2-yl)amino)-6,6a,7,8-tetrahydro-9H-pyrido[2,3-b]pyrrolo[1,2-d][1,4]oxazin-9-one]
0.1 to 1 | 0.01 to 0.1 | O=C(COc1cccc2c1C(=O)N(C1CCC(=O)NC1=O)C2=O)NCCCC(=O)Nc1ccc(C(=O)Nc2cncc(Nc3ccc(-c4ccc(N5CCCC5=O)cc4)cn3)c2)cc1 (stereo not shown) [Example 292, 4-(4-(2-((2-(2,6-dioxopiperidin-3-yl)-1,3-dioxoisoindolin-4-yl)oxy)acetamido)butanamido)-N-(5-((5-(4-(2-oxopyrrolidin-1-yl)phenyl)pyridin-2-yl)amino)pyridin-3-yl)benzamide]
0.1 to 1 | > 1 | CN(C)C(=O)c1ccc(-c2ccc(Nc3cnc4c(c3)NC(=O)CO4)nc2)cc1 [Example 88, N,N-dimethyl-4-(6-((2-oxo-2,3-dihydro-1H-pyrido[2,3-b][1,4]oxazin-7-yl)amino)pyridin-3-yl)benzamide]
0.001 to 0.01 | 0.01 to 0.1 | CC(O)C(=O)N1CCOc2ncc(Nc3ccc(-c4ccc(C(=O)N(C)C)cc4)cn3)cc21 (stereo not shown) [Example 92, 4-(6-((1-(2-hydroxypropanoyl)-2,3-dihydro-1H-pyrido[2,3-b][1,4]oxazin-7-yl)amino)pyridin-3-yl)-N,N-dimethylbenzamide]
0.001 to 0.01 | 0.001 to 0.01 | Cc1cnnn1-c1ccc(-c2ccc(Nc3cnc4c(c3)N3C(=O)CC[C@H]3CO4)nc2)cc1 [Example 289, (S)-2-((5-(4-(5-methyl-1H-1,2,3-triazol-1-yl)phenyl)pyridin-2-yl)amino)-6,6a,7,8-tetrahydro-9H-pyrido[2,3-b]pyrrolo[1,2-d][1,4]oxazin-9-one]
0.001 to 0.01 | 0.01 to 0.1 | CN(C)C(=O)c1ccc(-c2ccc(Nc3cnc4c(c3)N(C(=O)C3CC3)CCO4)nc2)cc1 [Example 90, 4-(6-((1-(cyclopropanecarbonyl)-2,3-dihydro-1H-pyrido[2,3-b][1,4]oxazin-7-yl)amino)pyridin-3-yl)-N,N-dimethylbenzamide]
> 1 | > 1 | CN1CC2(CCN(c3ccc(Nc4cnc5c(c4)N4C(=O)CC[C@H]4CO5)nc3)CC2)OC1=O [Example 279, (S)-2-((5-(3-methyl-2-oxo-1-oxa-3,8-diazaspiro[4.5]decan-8-yl)pyridin-2-yl)amino)-6,6a,7,8-tetrahydro-9H-pyrido[2,3-b]pyrrolo[1,2-d][1,4]oxazin-9-one]
0.01 to 0.1 | 0.01 to 0.1 | CC(=O)OC(C)C(=O)N1CCOc2ncc(Nc3ccc(-c4ccc(C(=O)N(C)C)cc4)cn3)cc21 (stereo not shown) [Example 91, 1-(7-((5-(4-(dimethylcarbamoyl)phenyl)pyridin-2-yl)amino)-2,3-dihydro-1H-pyrido[2,3-b][1,4]oxazin-1-yl)-1-oxopropan-2-yl acetate]
0.1 to 1 | 0.01 to 0.1 | Cn1cnnc1N1CC=C(c2ccc(Nc3cnc4c(c3)N3C(=O)CC[C@H]3CO4)nc2)CC1 [Example 274, (S)-2-((1′-(4-methyl-4H-1,2,4-triazol-3-yl)-1′,2′,3′,6′-tetrahydro-[3,4′-bipyridin]-6-yl)amino)-6,6a,7,8-tetrahydro-9H-pyrido[2,3-b]pyrrolo[1,2-d][1,4]oxazin-9-one]
0.01 to 0.1 | 0.01 to 0.1 | Cn1cnnc1-c1ccc(-c2ccc(Nc3cnc4c(c3)N3C(=O)CC[C@H]3CO4)nc2)cc1 [Example 291, (S)-2-((5-(4-(4-methyl-4H-1,2,4-triazol-3-yl)phenyl)pyridin-2-yl)amino)-6,6a,7,8-tetrahydro-9H-pyrido[2,3-b]pyrrolo[1,2-d][1,4]oxazin-9-one]
0.1 to 1 | > 1 | CN(C)C(=O)c1ccc(-c2ccc(Nc3cncc(N)c3)nc2)cc1 [Example 115, 4-(6-((5-aminopyridin-3-yl)amino)pyridin-3-yl)-N,N-dimethylbenzamide]
0.001 to 0.01 | – | COc1ccc(CN2CCN(c3cncc(Nc4ccc(-c5ccc(C(=O)N(C)C)cc5)cn4)c3)C2=O)cc1 [Example 74, 4-(6-((5-(3-(4-methoxybenzyl)-2-oxoimidazolidin-1-yl)pyridin-3-yl)amino)pyridin-3-yl)-N,N-dimethylbenzamide]
